Tests used:
[1] = tested on: barley (Hordeum vulgare) leaves; assay: Leaf penetration of 2,4-D, alone or in combination with modified oils; assay type: in vivo; settings: percentage of 2,4-D penetrated into barley leaf
Description: (§1) Ten drops are applied to the adaxial surface of the first leaf. After 0, 4, 6, 24 or 72 hours, the product which has not penetrated is washed with 0.5 ml of acetone and the radioactivity measured by liquid scintillation. The radioactivity present in the treated leaf in the rest of the plant is determined in the carbon dioxide obtained after burning the tissue.
The penetration into barley (Hordeum vulgare) leaves, of 2,4-D or (2,4-dichlorophenoxy) acetic acid, which is a herbicide with a highly dissociated carboxylic acid function, alone or in combination with modified oils, was compared according to the procedure described in the preceding paragraph.

[2] = tested on: barley (Hordeum vulgare) leaves; assay: Leaf penetration of carbon-14 labeled phenmedipham, alone or in combination with modified oils; assay type: in vivo; set-up: dose or concentration left out as unconfirmed; settings: percentage of phenmedipham penetrated into barley leaf, 72 hours after application in acetone
Description: as §1

Structure (SMILES)	LEAF PENETRATION AT: 24 HOURS ([1]; 24 hours after application) [%]	LEAF PENETRATION AT: 72 HOURS ([1]; 72 hours after application) [%]	LEAF PENETRATION AT: 72 HOURS [2] [%]
O=C(O)COc1ccc(Cl)cc1Cl [2,4-D ALONE, (2,4-dichlorophenoxy) acetic acid]	10	15	–
COC(=O)Nc1cccc(OC(=O)Nc2cccc(C)c2)c1 [PH[…], 3-[(methoxycarbonyl)amino] phenyl (3-methylphenyl)-carbamate]	–	–	<10
